Test results from US20130302442A1, “METHODS OF USING (4S,4AS,5AR,12AS)-4-DIMETHYLAMINO-3,10,12,12A-TETRAHYDROXY-7-[(METHOXY(METHYL)AMINO)-METHYL]-1,11-DIOXO-1,4,4A,5,5A,6,11,12A-OCTAHYDRO-NAPHTHACENE-2-CARBOXYLIC ACID AMIDE” (priority 2012, published 2013).
In brackets after ≈: the same amount, converted by molar mass. Where two headings read alike, the source gives them in different places.

Legend:
[1] = system: Helicobacter pylori; test: In vitro MIC against multiple isolates of H. pylori; type: cell-based
[2] = system: Helicobacter pylori; conditions: H. pylori reference strain 3718, ATCC 43504; Clinical and Laboratory Standards Institute quality control range; cited from earlier work
[3] = system: Streptococcus spp. [Group C]; test: In vitro MIC testing, antibacterial spectrum of activity; type: cell-based; conditions: Streptococcus spp. [Group C] (30 isolates)
[4] = system: S. pneumoniae; test: as above; type: cell-based, Streptococcus pneumoniae; conditions: Streptococcus pneumoniae, S. pneumoniae [PSSP] (32 isolates)
[5] = system: community-acquired methicillin-resistant S. aureus (MRSA-CA); test: In vitro MIC against isolates of MRSA-CA; type: cell-based, Staphylococcus aureus; conditions: Staphylococcus aureus; MRSA-CA (33 isolates)
[6] = system: S. agalactiae; test: In vitro MIC testing, antibacterial spectrum of activity; type: cell-based; conditions: Streptococcus agalactiae
[7] = system: E. faecalis; test: as above; type: cell-based; conditions: Enterococcus faecalis
[8] = system: S. epidermidis; test: as above; type: cell-based, Staphylococcus epidermidis; conditions: Staphylococcus epidermidis; for MIC50: read-out: MIC50; for MIC90: read-out: MIC90
[9] = system: P. avidum; test: as above; type: cell-based; conditions: P. avidum [clinical isolates] (4 isolates)
[10] = system: hospital-associated methicillin-resistant S. aureus (MRSA-HA); test: In vitro MIC against isolates of MRSA-HA; type: cell-based, Staphylococcus aureus; conditions: Staphylococcus aureus; MRSA-HA (33 isolates)
[11] = system: P. acnes; test: In vitro MIC testing, antibacterial spectrum of activity; type: cell-based, Propionibacterium acnes; conditions: Cutibacterium acnes
[12] = system: S. aureus; test: as above; type: cell-based, Staphylococcus aureus; conditions: Staphylococcus aureus
[13] = system: S. haemolyticus; test: as above; type: cell-based; conditions: Staphylococcus haemolyticus, S. haemolyticus (33 isolates)
[14] = system: methicillin-sensitive S. aureus (MSSA); test: In vitro MIC against isolates of MSSA; type: cell-based, Staphylococcus aureus; conditions: Staphylococcus aureus, MSSA (34 isolates)
[15] = system: E. faecium; test: In vitro MIC testing, antibacterial spectrum of activity; type: cell-based; conditions: Enterococcus faecium
[16] = system: S. pyogenes; test: as above; type: cell-based; conditions: Streptococcus pyogenes
[17] = S. epidermidis [MRSE] (32 isolates)
[18] = S. epidermidis [MSSE] (31 isolates)

CC1(C)S[C@@H]2[C@H](NC(=O)[C@H](N)c3ccc(O)cc3)C(=O)N2[C@H]1C(=O)O [AMX, amoxicillin]
MIC Range ([1]; H. pylori clinical isolate summary): 0.015 to 0.12 µg/mL
MIC ([1]; H. pylori clinical isolate, culture No. 4368): 0.06 µg/mL (≈ 0.164 µM)
MIC ([1]; H. pylori clinical isolate, culture No. 4369): 0.12 µg/mL (≈ 0.328 µM)
MIC ([1]; H. pylori clinical isolate, culture No. 4370): 0.12 µg/mL (≈ 0.328 µM)
MIC ([1]; H. pylori clinical isolate, culture No. 4371): 0.12 µg/mL (≈ 0.328 µM)
MIC ([1]; H. pylori clinical isolate, culture No. 4372): 0.015 µg/mL (≈ 0.041 µM)
MIC ([1]; H. pylori clinical isolate, culture No. 4374): 0.015 µg/mL (≈ 0.041 µM)
MIC ([1]; H. pylori clinical isolate, culture No. 4375): 0.12 µg/mL (≈ 0.328 µM)
MIC ([1]; H. pylori clinical isolate, culture No. 4377): 0.015 µg/mL (≈ 0.041 µM)
MIC ([1]; H. pylori clinical isolate, culture No. 4503): 0.03 µg/mL (≈ 0.0821 µM)
MIC ([1]; H. pylori clinical isolate, culture No. 4504): 0.015 µg/mL (≈ 0.041 µM)
MIC ([1]; H. pylori reference strain, culture No. 3718, ATCC 43504): 0.03 µg/mL (≈ 0.0821 µM)
MIC ([1]; H. pylori reference strain, culture No. 3719, ATCC 700824): 0.015 µg/mL (≈ 0.041 µM)
MIC ([1]; H. pylori reference strain, culture No. 3720, ATCC BAA-945): 0.06 µg/mL (≈ 0.164 µM)
MIC50 ([1]; H. pylori, MIC for 50% of clinical test isolates): 0.03 µg/mL (≈ 0.0821 µM)
MIC90 ([1]; H. pylori, MIC for 90% of clinical test isolates): 0.12 µg/mL (≈ 0.328 µM)
MIC, CLSI Quality Control Range [2]: (0.015-0.12) μg/mL

CCC[C@@H]1C[C@@H](C(=O)N[C@@H]([C@H]2O[C@H](SC)[C@H](O)[C@@H](O)[C@H]2O)[C@H](C)Cl)N(C)C1 [Clindamycin]
MIC50 ([3]; read-out: MIC50): 0.06 µg/mL (≈ 0.141 µM)
MIC90 ([3]; read-out: MIC90): 0.12 µg/mL (≈ 0.282 µM)
MIC50 ([4]; read-out: MIC50): 0.03 µg/mL (≈ 0.0706 µM)
MIC90 ([4]; read-out: MIC90): 0.06 µg/mL (≈ 0.141 µM)
MIC50 [5]: 0.12 µg/mL (≈ 0.282 µM)
MIC90 [5]: 0.25 µg/mL (≈ 0.588 µM)
MIC50 [6]: 0.06 µg/mL (≈ 0.141 µM)
MIC90 [6]: > 16 µg/mL
MIC50 [7]: > 32 µg/mL
MIC90 [7]: > 32 µg/mL
MIC50 [8, 17]: > 32 µg/mL
MIC90 [8, 17]: > 32 µg/mL
MIC50 [8, 18]: 0.12 µg/mL (≈ 0.282 µM)
MIC90 [8, 18]: > 32 µg/mL
MIC Range [9]: ≦0.06-0.5 μg/mL
MIC50 [10]: 2 µg/mL (≈ 4.71 µM)
MIC90 [10]: > 32 µg/mL
MIC50 ([11]; read-out: MIC50): ≤ 0.06 µg/mL
MIC90 ([11]; read-out: MIC90): 4 µg/mL (≈ 9.41 µM)
MIC50 ([12]; MRSA): 0.25 µg/mL (≈ 0.588 µM)
MIC90 ([12]; MRSA): > 32 µg/mL
MIC50 ([12]; MSSA): 0.25 µg/mL (≈ 0.588 µM)
MIC90 ([12]; MSSA): > 32 µg/mL
MIC50 ([13]; read-out: MIC50): 0.12 µg/mL (≈ 0.282 µM)
MIC90 ([13]; read-out: MIC90): 1 µg/mL (≈ 2.35 µM)
MIC50 [14]: 0.12 µg/mL (≈ 0.282 µM)
MIC90 ([14]; read-out: MIC90): > 32 µg/mL
MIC50 [15]: > 32 µg/mL
MIC90 [15]: > 32 µg/mL
MIC50 ([15]; VRE): > 32 µg/mL
MIC90 ([15]; VRE): > 32 µg/mL
MIC50 [16]: 0.03 µg/mL (≈ 0.0706 µM)
MIC90 [16]: 0.06 µg/mL (≈ 0.141 µM)
